# Measured values as given in article PMC6125551 (Antimicrobial Agents and Chemotherapy, 2018).
# Where two headings read alike, the source gives them in different places.
# Legend:
# [1] = clinical; conditions: male, human, 500 mg
# Description: (§1) Study 1 (protocol 001) was a phase 1, randomized, double-blind, placebo-controlled, rising single- and multiple-dose study conducted at a single center that investigated relebactam in healthy adult men. The study was conducted in four parts, and all doses were administered intravenously (i.v.) in a total volume of 100 ml over 30 min.
# (§2) In each panel, in all periods (except period 4), subjects were randomized to receive a placebo (n = 2) or relebactam (n = 6).
# (§3) The plasma was mixed with a stabilizer containing morpholineethanesulfonic acid buffer and ethylene glycol before storage at −70°C. […] The assay utilized hydrophilic interaction chromatography (HILIC) and tandem mass spectrometry. Stable isotope-labeled internal standards were used for all three analytes.
# (§4) Pharmacokinetic parameters were determined from plasma and urine concentration-time data by a noncompartmental approach using Phoenix WinNonlin, version 6.3 (Certara LP, Princeton, NJ, USA). The CEOI (concentration at end of infusion) and Tmax (time to maximum concentration) were generated from each analyte's plasma concentration-time data. All AUC values were calculated using the linear trapezoidal method for ascending concentrations and the log trapezoidal method for descending concentrations (calculation method options in WinNonlin). AUC0–∞ was calculated as the sum of AUC0–last and Cest, last/λz, where AUC0–last is the AUC from time 0 to the time of the last quantifiable concentration, Cest, last is the predicted concentration at the time of the last quantifiable concentration, and λz is the apparent terminal rate constant. […] At least three consecutive data points (excluding Cmax) in terminal phase were used for λz calculations. Clearance (CL) was calculated as dose/AUC0–∞.
# [2] = Urine pharmacokinetics, single dose, study 2; conditions: both, human, CLR, range
# Description: (§5) Study 2 (protocol 002) was a phase 1, randomized, double-blind, placebo-controlled study with three panels of healthy participants that included elderly men (panel L [n = 8]), elderly women (panel M [n = 8]), and adult women (panel N [n = 8]).
# as §3
# (§6) The amount of unchanged drug excreted in urine during a collection interval (Ae) was calculated by a cumulative sum of urine (concentration of unchanged drug × volume) per collection interval. The fraction of the dose excreted in urine (fe) was calculated as Ae/dose.
# [3] = Urine pharmacokinetics, single dose, study 1 part I, healthy men; conditions: imipenem-cilastatin 500 mg alone, adult men from study 1
# Description: as §2, §3, §6
# [4] = for AUC(0-t) / half-life: male, human, in vivo
# Description: (§7) Each panel was dosed sequentially, allowing for assessment of safety and tolerability before dose escalation.
# as §3, §4
# [5] = clinical; conditions: female, human, plasma, intravenous
# Description: as §5, §3, §4
# [6] = clinical; conditions: male, human, in vivo
# Description: as §2, §3, §6
# [7] = clinical; conditions: male, human, in vivo; remark: listed apart in the source
# Description: as §7, §3, §4
# [8] = Plasma pharmacokinetics, single dose as 30-min i.v. infusion, study 1 part I, healthy men; conditions: for half-life / AUC(0-inf) / concentration at 30 min / clearance / Vd: male, human, plasma; for AUC(0-inf): AUC0–∞; for concentration at 30 min: CEOI; for clearance: CL; for Vd: Vz;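 on all read-outs here: plasma analyte levels quantified by HILIC with tandem mass spectrometry, parameters derived noncompartmentally in WinNonlin, AUC by linear-up log-down trapezoidal rule, clearance taken as dose over AUC0–∞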
# Description: as §1, §2, §3, §4
# [9] = Safety and tolerability, single dose, study 1 part I; type: in vivo, human
# Description: The safety analysis comprised the all-subjects-as-treated (ASaT) population, which included those participants who received ≥1 dose of investigational drug.
# [10] = male, human, in vivo, 250 mg
# Description: as §2, §3, §6
# [11] = male, human, in vivo
# Description: as §7, §3, §6
# [12] = assumed for the calculation, no reference given; cited from earlier work
# [13] = clinical; conditions: male, human, in vivo, unbound CLR
# Description: as §7, §3, §6
# [14] = Plasma pharmacokinetics, single dose, study 2 (elderly men, elderly women, adult women)
# Description: as §5, §3, §4
# [15] = urine and plasma, intravenous, adult participants (men and women)
# [16] = urine and plasma, intravenous, elderly participants (men and women)
# [17] = intravenous, 25 mg, relebactam 25 mg alone, single dose
# [18] = intravenous, 50 mg, relebactam 50 mg alone, single dose
# [19] = intravenous, 250 mg, relebactam 250 mg alone, single dose
# [20] = intravenous, 500 mg, relebactam 500 mg alone, single dose
# [21] = intravenous, 1000 mg, relebactam 1,000 mg alone, single dose
# [22] = intravenous, 1150 mg, relebactam 1,150 mg alone, single dose
# 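Wherever CEOI is given: plasma levels quantified by HILIC with tandem mass spectrometry and isotope-labeled internal standards, parameters derived noncompartmentally in WinNonlin, clearance equal to dose divided by AUC0-∞.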
structure (smiles),measurement,setting,value
CC1(C)C[C@@H]1C(=O)N/C(=C\CCCCSC[C@H](N)C(=O)O)C(=O)O [Cilastatin],AUC(0-inf),[1]; in vivo,114 ± 13.5 µM·h
same,Vd,[1]; in vivo,16.5 ± 2.11 L
same,concentration at 30 min,[1]; in vivo,101 ± 16.6 µM
same,half-life,[1]; in vivo,0.92 ± 0.051 h
same,CL renal,"[2]; in vivo, adult participants (men and women)",157 to 168 mL/min
same,CL renal,"[2]; in vivo, elderly participants (men and women)",112 to 126 mL/min
same,"fe, least squares mean (95% CI)",[3],"88.5 (82.1, 94.9) %"
same,CL renal,"[3]; male, human, in vivo, 500 mg, CLR, mean (95% CI)",168 mL/min
same,CEOI,"[4]; 0 mg relebactam + 500 mg imipenem/cilastatin, panel I, day 1, N 1",144 µM
same,CEOI,"[4]; 0 mg relebactam + 500 mg imipenem/cilastatin, panel J, day 1",107 ± 6.53 µM
same,CEOI,"[4]; 0 mg relebactam + 500 mg imipenem/cilastatin, panel K, day 1",104 ± 10.4 µM
same,CEOI,"[4]; 50 mg relebactam + 500 mg imipenem/cilastatin, panel C, day 1",106 ± 12.0 µM
same,CEOI,"[4]; 250 mg relebactam + 500 mg imipenem/cilastatin, panel F, day 1",103 ± 20.0 µM
same,CEOI,"[4]; 500 mg relebactam + 500 mg imipenem/cilastatin, panel H, day 1",115 ± 21.9 µM
same,CEOI,"[4]; 500 mg relebactam + 500 mg imipenem/cilastatin, panel J, day 1",98.5 ± 14.6 µM
same,AUC(0-t),"[4]; AUC0-6, 0 mg relebactam + 500 mg imipenem/cilastatin, panel I, day 1, N 1",167 µM·h
same,AUC(0-t),"[4]; AUC0-6, 0 mg relebactam + 500 mg imipenem/cilastatin, panel J, day 1",110 ± 7.17 µM·h
same,AUC(0-t),"[4]; AUC0-6, 0 mg relebactam + 500 mg imipenem/cilastatin, panel K, day 1",126 ± 37.9 µM·h
same,AUC(0-t),"[4]; AUC0-6, 50 mg relebactam + 500 mg imipenem/cilastatin, panel C, day 1",127 ± 24.8 µM·h
same,AUC(0-t),"[4]; AUC0-6, 250 mg relebactam + 500 mg imipenem/cilastatin, panel F, day 1",110 ± 14.2 µM·h
same,AUC(0-t),"[4]; AUC0-6, 500 mg relebactam + 500 mg imipenem/cilastatin, panel H, day 1",136 ± 22.5 µM·h
same,AUC(0-t),"[4]; AUC0-6, 500 mg relebactam + 500 mg imipenem/cilastatin, panel J, day 1",106 ± 17.2 µM·h
same,half-life,"[4]; Terminal t1/2, 0 mg relebactam + 500 mg imipenem/cilastatin, panel I, day 1, N 1",0.962 h
same,half-life,"[4]; Terminal t1/2, 0 mg relebactam + 500 mg imipenem/cilastatin, panel J, day 1",0.862 ± 0.088 h
same,half-life,"[4]; Terminal t1/2, 0 mg relebactam + 500 mg imipenem/cilastatin, panel K, day 1",0.908 ± 0.182 h
same,half-life,"[4]; Terminal t1/2, 50 mg relebactam + 500 mg imipenem/cilastatin, panel C, day 1",1.01 ± 0.142 h
same,half-life,"[4]; Terminal t1/2, 250 mg relebactam + 500 mg imipenem/cilastatin, panel F, day 1",0.998 ± 0.087 h
same,half-life,"[4]; Terminal t1/2, 500 mg relebactam + 500 mg imipenem/cilastatin, panel H, day 1",1.01 ± 0.146 h
same,half-life,"[4]; Terminal t1/2, 500 mg relebactam + 500 mg imipenem/cilastatin, panel J, day 1",0.874 ± 0.117 h
C[C@@H](O)[C@H]1C(=O)N2C(C(=O)O)=C(SCCN=CN)C[C@H]12 [Imipenem],AUC(0-inf),"[1]; plasma, intravenous",140 ± 16.7 µM·h
same,clearance,"[1]; plasma, intravenous",201 ± 21.4 mL/min
same,concentration at 30 min,"[1]; plasma, intravenous",102 ± 17 µM
same,half-life,"[1]; plasma, intravenous",1.13 ± 0.075 h
same,AUC(0-inf),[5],132 ± 18.9 µM·h
same,CL renal,[6]; 500 mg,106 ± 20.3 mL/min
same,CL renal,"[6]; 500 mg, CLR, mean (95% CI)",108 mL/min
same,AUC(0-t),[7],138 ± 15.3 µM·h
same,clearance,[7],178 ± 16.1 mL/min
same,CL renal,[2]; [15],98.6 to 108 mL/min
same,CL renal,[2]; [16],67.6 to 80.9 mL/min
same,half-life,"[8]; intravenous, t1/2, observed, compared with relebactam",1.1 h
O=C(NC1CCNCC1)[C@@H]1CC[C@@H]2CN1C(=O)N2OS(=O)(=O)O [Relebactam],tolerability,"[9]; alone or in combination with imipenem-cilastatin, across the dose ranges studied",well tolerated
same,participants reporting ≥1 drug-related AEs,"[9]; single-dose cohort, part I, n = 16, with or without imipenem-cilastatin",50%
same,CLR,[10],144 ± 11.0 mL/min
same,"net active secretion, share of total clearance",[11],approximately 30%
same,free fraction,[12],78%
same,CL renal,"[6]; 25 mg, CLR",177 ± 29.4 mL/min
same,CL renal,"[6]; 50 mg, CLR",166 ± 21.8 mL/min
same,CL renal,"[6]; 125 mg, CLR",159 ± 19.6 mL/min
same,CL renal,"[6]; 125 mg, CLR, mean (95% CI)",158 mL/min
same,CL renal,"[6]; 250 mg, CLR",153 ± 16.5 mL/min
same,CL renal,"[6]; 500 mg, CLR",129 ± 20.7 mL/min
same,CL renal,"[6]; 1000 mg, CLR",127 ± 20.2 mL/min
same,CL renal,"[6]; 1150 mg, CLR",137 ± 20.6 mL/min
same,half-life,"[7]; geometric mean terminal t1/2, range",1.42 to 1.85 h
same,CL renal at 7 days,[13],173 mL/min
same,CL renal,[2]; [15],106 to 158 mL/min
same,CL renal,[2]; [16],69.6 to 89.2 mL/min
same,increase in AUC0–∞,[14]; adult women vs adult men (historic data from study 1),22%
same,increase in mean plasma exposure,[14]; elderly men vs adult men,41%
same,increase in mean plasma exposure,[14]; elderly women vs adult women,45%
same,increase in AUC0–∞,[14]; elderly women vs elderly men,25%
same,AUC(0-inf),[8]; [17],7.97 ± 1.67 µM·h
same,concentration at 30 min,[8]; [17],4.42 ± 1.18 µM
same,clearance,[8]; [17],155 ± 30.6 mL/min
same,Vd,[8]; [17],18.3 ± 2.99 L
same,half-life,"[8]; intravenous, 25 mg, t1/2, relebactam 25 mg alone, single dose",1.39 ± 0.246 h
same,AUC(0-inf),[8]; [18],15.6 ± 2.73 µM·h
same,concentration at 30 min,[8]; [18],9.04 ± 1.88 µM
same,clearance,[8]; [18],157 ± 23.8 mL/min
same,Vd,[8]; [18],20.5 ± 3.88 L
same,concentration at 30 min,[8]; [19],45.4 ± 7.27 µM
same,clearance,[8]; [19],148 ± 16.4 mL/min
same,Vd,[8]; [19],20.8 ± 2.77 L
same,half-life,"[8]; intravenous, 250 mg, t1/2, relebactam 250 mg alone, single dose",1.63 ± 0.129 h
same,AUC(0-inf),[8]; [20],180 ± 25.7 µM·h
same,concentration at 30 min,[8]; [20],101 ± 17.6 µM
same,clearance,[8]; [20],135 ± 19.9 mL/min
same,Vd,[8]; [20],19.1 ± 2.64 L
same,half-life,"[8]; intravenous, 500 mg, t1/2, relebactam 500 mg alone, single dose",1.64 ± 0.141 h
same,AUC(0-inf),[8]; [21],373 ± 51.9 µM·h
same,concentration at 30 min,[8]; [21],209 ± 28.6 µM
same,clearance,[8]; [21],130 ± 18.3 mL/min
same,Vd,[8]; [21],20.6 ± 3.46 L
same,half-life,"[8]; intravenous, 1000 mg, t1/2, relebactam 1,000 mg alone, single dose",1.84 ± 0.281 h
same,AUC(0-inf),[8]; [22],396 ± 55.3 µM·h
same,concentration at 30 min,[8]; [22],208 ± 18.3 µM
same,clearance,[8]; [22],141 ± 18.8 mL/min
same,Vd,[8]; [22],21.6 ± 2.69 L
same,half-life,"[8]; intravenous, 1150 mg, t1/2, relebactam 1,150 mg alone, single dose",1.78 ± 0.225 h
same,half-life,"[8]; intravenous, harmonic mean terminal half-life (t1/2), range, single dose, 25- to 1,150-mg dose range, healthy men",1.35 to 1.8 h
same,half-life,"[8]; iv, terminal half-life (t1/2), range, single- or multiple-dose i.v. administration over 30 min, independent of dose",1.35 to 1.85 h
same,AUC0–∞,"[8]; relebactam 250 mg alone, single dose",81.8 ± 9.07 µM·h
